The values that follow come from US8476306B2, “Urokinase inhibitors, production and use thereof” (The Medicines Company (Leipzig) GmbH, priority 2002, dated 2013).

The target of one data set is trypsin. The experiment in a line: Inhibition constants for trypsin, determined in analogy to uPA. Type of data set: biochemical.
For a further data set, the target named is plasmin (Homo sapiens (Human), UniProt P00747). The experiment in a line: Inhibition constants for plasmin, determined in analogy to uPA. Type of data set: biochemical.
plasmin, sequence (P00747 581-810, species assumed): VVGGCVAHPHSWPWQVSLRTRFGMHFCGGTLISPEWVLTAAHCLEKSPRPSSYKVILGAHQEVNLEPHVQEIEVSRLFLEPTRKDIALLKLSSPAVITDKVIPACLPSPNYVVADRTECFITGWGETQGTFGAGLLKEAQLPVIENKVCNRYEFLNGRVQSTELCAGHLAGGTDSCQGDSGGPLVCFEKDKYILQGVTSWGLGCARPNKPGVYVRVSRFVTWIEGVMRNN
plasmin, sequence (P00747 97-580 partner, species assumed): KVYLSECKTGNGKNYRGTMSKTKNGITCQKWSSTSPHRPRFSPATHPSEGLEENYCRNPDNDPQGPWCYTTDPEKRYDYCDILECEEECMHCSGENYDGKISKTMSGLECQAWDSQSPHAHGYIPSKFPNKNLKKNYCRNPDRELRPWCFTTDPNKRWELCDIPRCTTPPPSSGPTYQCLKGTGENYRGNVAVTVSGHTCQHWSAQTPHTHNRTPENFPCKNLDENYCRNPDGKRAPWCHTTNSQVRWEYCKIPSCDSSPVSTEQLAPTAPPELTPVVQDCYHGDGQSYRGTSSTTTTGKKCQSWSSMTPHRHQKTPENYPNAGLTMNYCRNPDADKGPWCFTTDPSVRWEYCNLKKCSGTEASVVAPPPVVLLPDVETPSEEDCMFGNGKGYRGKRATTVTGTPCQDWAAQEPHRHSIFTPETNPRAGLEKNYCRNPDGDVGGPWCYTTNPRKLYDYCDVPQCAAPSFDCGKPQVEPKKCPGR
A further data set deals with thrombin (Homo sapiens (Human), UniProt P00734). The experiment in a line: Inhibition constants for thrombin, determined in analogy to uPA. In kind it is biochemical.
For another data set, the target named is uPA (Homo sapiens (Human), UniProt P00749). The experiment in a line: Inhibition constants for uPA, determined as in Stürzebecher et al. 1997. In kind it is biochemical.
Data set [1] can be described thus: Elimination (β phase) half-life in rats after intravenous administration, plasma levels by HPLC. The following applies: for elimination (β phase) half-life t1/2: rats, intravenous administration 1 mg/kg; for half-life: female, Wistar, rat, plasma, iv, 1 mg/kg.
Experimental: Female Wistar rats (240-300 g body weight) were anesthetized (ethylurethane, 2.5 g/ml in NaCl, 0.5 ml/100 g rat), after which the A. carotis located in the neck was exposed. A catheter inserted into this vessel enabled blood to be removed at specified times. The volume administered was 0.5 ml, while 0.9% NaCl was used as the administration solution. […] The resultant loss of blood was offset, immediately after removal of the sample, with 500 μl of 0.9% NaCl solution. Citrate plasma was obtained by centrifuging the blood at 1200×g for 10 min.
For data set [2] the following is noted: after s.c. administration; following acylation of the D-Ser hydroxyl; cited from earlier work.
The next data set deals with sc urokinase (Homo sapiens (Human), UniProt P00749). The experiment in a line: Inhibiting urokinase with 4-amidinobenzylamide compounds (chromogenic substrate Bzl-βAla-Gly-Arg-pNA, Dixon Ki). The settings on record: 25° C., pH 8.0, means of at least three determinations. In kind it is biochemical. The text has this: Determining the Inhibitory Effect
The Ki values are the means of at least three determinations.

Structures are written as SMILES. Counter-ions that a name gives are not always drawn.

trypsin, sequence (P00760 24-246 limits assumed): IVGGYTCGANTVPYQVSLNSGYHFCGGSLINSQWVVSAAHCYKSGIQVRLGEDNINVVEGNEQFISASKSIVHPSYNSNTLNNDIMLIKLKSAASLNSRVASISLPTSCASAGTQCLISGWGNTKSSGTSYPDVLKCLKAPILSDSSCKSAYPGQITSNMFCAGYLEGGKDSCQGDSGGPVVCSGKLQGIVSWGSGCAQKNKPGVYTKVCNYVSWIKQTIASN

Turning to `N=C(N)c1ccc(CNC(=O)[C@H](CO)NC(=O)[C@@H](CO)NS(=O)(=O)Cc2ccc(C(=O)O)cc2)cc1` [R=4-COOH, X=CH, R1=CH2—OH], the Ki – broadly, a dissociation constant, usually derived from enzyme kinetics or from competition with a known ligand – at trypsin was 100 nM; on plasmin, 6200 nM; at thrombin, 120000 nM; on uPA, 230 nM. The “elimination (β phase) half-life t1/2” value in data set [1] was determined as 25.8 min.
Turning to `N=C(N)c1ccc(CNC(=O)CNC(=O)[C@@H](CO)NS(=O)(=O)Cc2ccc(CN)cc2)cc1` [R=4-(NH2—CH2), X=CH, R1=H, 4-(Aminomethyl)benzylsulfonyl-dSer-Gly-4-amidinobenzylamide×2 TFA], the Ki on plasmin amounted to 7400 nM; on thrombin it was 8000 nM.
For `C[C@H](NC(=O)[C@@H](CO)NS(=O)(=O)Cc1cccc(C(=O)O)c1)C(=O)NCc1ccc(C(=N)N)cc1` [R=3-COOH, X=CH, R1=CH3], the Ki came out at 21 nM on trypsin, 4700 nM at plasmin, 8300 nM on thrombin and 30 nM at uPA. In data set [1], the “elimination (β phase) half-life t1/2” value was determined as 25.2 min.
On to `COC(=O)c1ccc(CS(=O)(=O)N[C@H](CO)C(=O)NCC(=O)NCc2ccc(C(=N)N)cc2)cc1` [R=4-COOMe, X=CH, R1=H], for which the Ki was found to be 180 nM at trypsin, 17000 nM on plasmin, 9400 nM at thrombin and 620 nM on uPA.
`COC(=O)c1ccccc1CS(=O)(=O)N[C@H](CO)C(=O)NCC(=O)NCc1ccc(C(=N)N)cc1` [R=2-COOMe, X=CH, R1=H]: the Ki on trypsin worked out at 400 nM; at plasmin it was 38000 nM; on thrombin it was 4000 nM; on uPA it was 83 nM.
In the same order, the values of `N=C(N)c1ccc(CNC(=O)CNC(=O)[C@@H](CO)NS(=O)(=O)Cc2ccc(CC(=O)O)cc2)cc1` [Example 13, 4(HOOC—CH2)Benzylsulfonyl-dSer-Gly-4-Amba] are 300 nM, 27000 nM, 60000 nM and 130 nM.
Regarding `CC(C)COC(=O)N[C@H](CO)C(=O)N[C@@H](C)C(=O)N[C@H](C=O)CCCNC(=N)N` [iBuOCO-D-Ser-Ala-Arg-H], the relative bioavailability in data set [2] is on record as 87%.
As for `COC(=O)c1cccc(CS(=O)(=O)N[C@H](CO)C(=O)NCC(=O)NCc2ccc(C(=N)N)cc2)c1` [R=3-COOMe, X=CH, R1=H], the Ki at trypsin worked out at 290 nM; at plasmin, 28000 nM; at thrombin, 42000 nM; on uPA, 120 nM.
In the same order, the values of `N=C(N)c1ccc(CNC(=O)[C@H](Cc2cnc[nH]2)NC(=O)[C@@H](CO)NS(=O)(=O)Cc2ccccc2)cc1` [Example 12, Benzylsulfonyl-dSer-His-4-Amba] are 25 nM, 400 nM, 8500 nM and 110 nM.
In the same order, the values of `N=C(N)c1ccc(CNC(=O)CNC(=O)[C@@H](CO)NS(=O)(=O)Cc2ccc(F)cc2)cc1` [R=4-F, X=CH, R1=H] are 110 nM, 20000 nM, 7900 nM and 31 nM.
With `N#Cc1ccc(CS(=O)(=O)N[C@H](CO)C(=O)NCC(=O)NCc2ccc(C(=N)N)cc2)cc1` [R=4-CN, X=CH, R1=CH], the Ki at trypsin amounted to 340 nM; on plasmin, 27000 nM; on thrombin it was 8500 nM; at uPA, 89 nM.
With `COC(=O)c1ccc(CS(=O)(=O)N[C@H](CO)C(=O)N[C@@H](CO)C(=O)NCc2ccc(C(=N)N)cc2)cc1` [R=4-COOMe, X=CH, R1=CH2—OH], the Ki on trypsin stood at 20 nM; at plasmin, 960 nM; at thrombin, 4200 nM; at uPA, 230 nM.
As to `N=C(N)c1ccc(CNC(=O)[C@H](CC(=O)O)NC(=O)[C@@H](CO)NS(=O)(=O)Cc2ccccc2)cc1`, on sc urokinase, affinity was put at a Ki of 860 nM.
As to `N=C(N)c1ccc(CNC(=O)[C@H](CCCCNC(=O)COCC(=O)NCCOCCOCCOCCOCCOCCOCCOCCN)NC(=O)[C@@H](CO)NS(=O)(=O)Cc2ccccc2)cc1` [Example 10, Bzls-dSer-Lys(CO—CH2—O—CH2—CO—NH—CH2—CH2-Hexaethylene-glycol-CH2—CH2—NH2)-4-amidinobenzylamide×2 TFA], the inhibitory constant (Ki) at plasmin turned out to be 530 nM; on thrombin, 1400 nM; at uPA, 42 nM. In addition, the half-life – broadly, the time needed for the level to fall by half in the phase considered – in data set [1] was 52.8 min.
For `N=C(N)c1ccc(CNC(=O)CNC(=O)[C@@H](CN)NS(=O)(=O)Cc2ccccc2)cc1` [Example 11, Benzylsulfonyl-dDap-Gly-4-Amba], the Ki at trypsin stood at 180 nM; on plasmin it was 9600 nM; on thrombin, 10000 nM; at uPA, 180 nM.
On to `Cc1ccc(CS(=O)(=O)N[C@H](CO)C(=O)NCC(=O)NCc2ccc(C(=N)N)cc2)cc1` [R=4-Me, X=CH, R1=H], for which the Ki on trypsin was 210 nM; at plasmin, 18000 nM; at thrombin it was 8000 nM; at uPA, 58 nM.
Regarding `N=C(N)c1ccc(CNC(=O)CNC(=O)[C@@H](CO)NS(=O)(=O)Cc2ccc(Cl)cc2)cc1` [R=4-Cl, X=CH, R1=H], the Ki on trypsin came out at 350 nM; at plasmin, 32000 nM; at thrombin, 7900 nM; at uPA, 32 nM.
Consider `N=C(N)c1ccc(CNC(=O)[C@H](CCCN=C(N)N)NC(=O)[C@@H](CO)NS(=O)(=O)Cc2ccccc2)cc1` [X=Arg, Benzylsulfonyl-dSer-Arg-4-amidinobenzylamide×2 TFA], for which the values for the Ki at plasmin and on thrombin were 200 nM and 4700 nM, respectively. Moreover, the half-life in data set [1] is 36 min.
For the molecule `N=C(N)c1ccc(CNC(=O)CNC(=O)[C@@H](CO)NS(=O)(=O)Cc2ccccc2)cc1` [R=H, X=CH, R1=H, Benzylsulfonyl-D-Ser-Gly-4-amidinobenzylamide], the values for the Ki on trypsin, on plasmin and at thrombin were 150 nM, 11000 nM and 13000 nM, respectively. Also, the “elimination (β phase) half-life t1/2” value in data set [1] is 17.4 min.
Take `N=C(N)c1ccc(CNC(=O)CNC(=O)[C@@H](CO)NS(=O)(=O)Cc2ccccc2C(=O)O)cc1` [R=2-COOH, X=CH, R1=H]: the Ki on trypsin turned out to be 2400 nM; on plasmin, 220000 nM; at thrombin, 56000 nM; at uPA, 370 nM.
Regarding `N=C(N)c1ccc(CNC(=O)[C@H](CCC(=O)O)NC(=O)[C@@H](CO)NS(=O)(=O)Cc2ccccc2)cc1` [Benzylsulfonyl-D-Ser-Glu-4-amidinobenzylamide×TFA], affinity at sc urokinase was put at a Ki of 160 nM. This lies in the sub-micromolar range.
Consider `CC(O)[C@H](NC(=O)[C@@H](CO)NS(=O)(=O)Cc1ccccc1)C(=O)NCc1ccc(C(=N)N)cc1` (stereo partly drawn) [R=H, X=CH, R1=CH(OH)CH3], for which the Ki turned out to be 30 nM at trypsin, 1400 nM at plasmin, 4000 nM at thrombin and 110 nM on uPA.
Consider `CC(OCc1ccccc1)[C@H](NC(=O)[C@@H](CO)NS(=O)(=O)Cc1ccccc1)C(=O)NCc1ccc(C(=N)N)cc1` (stereo partly drawn) [R=H, X=CH, R1=CH(OBzl)CH3], for which the Ki came out at 11 nM on trypsin, 1100 nM on plasmin, 100 nM on thrombin and 61 nM on uPA.
Take `N=C(N)c1ccc(CNC(=O)[C@H](CO)NC(=O)[C@@H](CO)NS(=O)(=O)Cc2cccc(C(=O)O)c2)cc1` [R=3-COOH, X=CH, R1=CH2—OH]: the Ki at trypsin worked out at 58 nM; at plasmin, 4200 nM; at thrombin it was 200000 nM; on uPA, 75 nM. Besides, the “elimination (β phase) half-life t1/2” value in data set [1] is 25.8 min.
`C[C@H](NC(=O)[C@@H](CO)NS(=O)(=O)Cc1ccc(C(=O)O)cc1)C(=O)NCc1ccc(C(=N)N)cc1` [R=4-COOH, X=CH, R1=CH3]: the Ki on trypsin worked out at 13 nM; at plasmin, 3000 nM; on thrombin, 2300 nM; on uPA, 38 nM. In addition, the “elimination (β phase) half-life t1/2” value in data set [1] is 39.6 min.
Take `N=C(N)c1ccc(CNC(=O)[C@H](COCc2ccccc2)NC(=O)[C@@H](CO)NS(=O)(=O)Cc2ccccc2)cc1` [R=H, X=CH, R1=CH2—O(Bzl)]: the Ki stood at 6.8 nM at trypsin, 270 nM at plasmin, 480 nM at thrombin and 28 nM at uPA.
Turning to `N=C(N)c1ccc(CNC(=O)CNC(=O)[C@@H](CO)NS(=O)(=O)Cc2ccc(C(=O)O)cc2)cc1` [R=4-COOH, X=CH, R1=H], the Ki at trypsin was found to be 480 nM; on plasmin it was 35000 nM; on thrombin it was 170000 nM; on uPA it was 150 nM. Moreover, the “elimination (β phase) half-life t1/2” value in data set [1] was 120 min.
Regarding `N=C(N)c1ccc(CNC(=O)CNC(=O)[C@@H](CO)NS(=O)(=O)Cc2cccc(C(=O)O)c2)cc1.O=C(O)C(F)(F)F` [R=3-COOH, X=CH, R1=H, 3-(HOOC)Benzylsulfonyl-dSer-Gly-4-amidinobenzylamide×TFA], the Ki worked out at 59000 nM at plasmin, 150000 nM on thrombin and 160 nM on uPA. This molecule showed a half-life in data set [1] of 78 min.
Regarding `N=C(N)c1ccc(CNC(=O)[C@H](CN)NC(=O)[C@@H](CO)NS(=O)(=O)Cc2ccccc2)cc1` [R=H, X=CH, R1=CH2—NH2], the Ki on trypsin was 21 nM; at plasmin, 810 nM; on thrombin it was 780 nM; at uPA, 36 nM. The “elimination (β phase) half-life t1/2” value in data set [1] worked out at 24 min.
With `N=C(N)c1ccc(CNC(=O)[C@H](CCCCN)NC(=O)[C@@H](CO)NS(=O)(=O)Cc2ccccc2)cc1` [X=Lys, Benzylsulfonyl-dSer-Lys-4-amidinobenzylamide×2 TFA], the Ki at plasmin came out at 360 nM; at thrombin it was 4300 nM. In data set [1], the half-life is 42 min.
As for `N=C(N)c1ccc(CNC(=O)CNC(=O)[C@@H](CO)NS(=O)(=O)Cc2ccc(Cl)c(Cl)c2)cc1` [R=3,4-di-Cl, X=CH, R1=H], the Ki came out at 600 nM at trypsin, 32000 nM at plasmin, 8300 nM on thrombin and 110 nM at uPA.
